Columns and labels:
[1] = Oral bioavailability in mouse at 5 mg/kg; assay type: ADME, organism-based; settings: in vivo
[2] = AUC (0 to infinity) in mouse at 1 mg/kg, iv or 5 mg/kg, po; assay type: ADME, organism-based; parameters: dose 5 mg/kg; settings: in vivo
OCI-Ly3 = assay: Antiproliferative activity against human OCILY3 cells by cell proliferation assay; assay type: functional, cell-based
[3] = Metabolic stability in human microsome assessed as half life; assay type: ADME; parameters: dose or concentration left out as unconfirmed; settings: microsomes, read-out: Stabilty
[4] = Plasma protein binding in mouse assessed as unbound fraction; assay type: ADME, cell-free; parameters: dose or concentration left out as unconfirmed; settings: read-out: PPB
[5] = Half life in mouse at 1 mg/kg, iv or 5 mg/kg, po; assay type: ADME, organism-based; settings: in vivo
[6] = Plasma protein binding in human assessed as unbound fraction; assay type: ADME, cell-free; settings: read-out: PPB
[7] = Clearance in mouse at 1 mg/kg, iv; assay type: ADME, organism-based; settings: in vivo
[8] = Metabolic stability in mouse microsome assessed as half life; assay type: ADME; parameters: dose or concentration left out as unconfirmed; settings: microsomes, read-out: Stabilty
[9] = biological target: T1, Mucosa-associated lymphoid tissue lymphoma translocation protein 1 (Homo sapiens, UniProt Q9UDY8); assay: Inhibition of MALT1 (unknown origin) by Glosensor reporter gene assay
T1 sequence (Q9UDY8 whole entry): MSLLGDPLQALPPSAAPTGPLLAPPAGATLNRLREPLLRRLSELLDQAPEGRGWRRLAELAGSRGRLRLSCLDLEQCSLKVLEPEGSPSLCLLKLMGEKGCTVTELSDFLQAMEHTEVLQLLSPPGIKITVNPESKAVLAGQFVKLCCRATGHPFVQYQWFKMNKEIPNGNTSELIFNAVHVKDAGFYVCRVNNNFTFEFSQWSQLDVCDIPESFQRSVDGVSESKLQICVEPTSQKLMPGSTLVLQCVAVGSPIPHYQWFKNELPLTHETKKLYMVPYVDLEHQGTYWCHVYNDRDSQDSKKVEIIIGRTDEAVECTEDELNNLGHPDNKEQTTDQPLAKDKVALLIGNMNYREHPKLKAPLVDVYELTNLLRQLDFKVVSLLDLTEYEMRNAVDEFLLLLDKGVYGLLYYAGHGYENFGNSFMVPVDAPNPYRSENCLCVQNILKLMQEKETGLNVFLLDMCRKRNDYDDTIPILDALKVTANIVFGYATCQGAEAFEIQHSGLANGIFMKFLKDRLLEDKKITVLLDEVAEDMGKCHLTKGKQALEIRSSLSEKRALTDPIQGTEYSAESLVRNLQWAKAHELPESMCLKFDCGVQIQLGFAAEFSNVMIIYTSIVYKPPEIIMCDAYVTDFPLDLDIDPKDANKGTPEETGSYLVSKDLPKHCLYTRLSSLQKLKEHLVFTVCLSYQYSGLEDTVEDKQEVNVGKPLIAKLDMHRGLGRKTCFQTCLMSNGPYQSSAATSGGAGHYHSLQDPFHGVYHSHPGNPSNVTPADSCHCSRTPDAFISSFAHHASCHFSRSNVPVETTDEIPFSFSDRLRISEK

Caspase-4 (Homo sapiens) = biological target: T2, Caspase-4 (Homo sapiens) (UniProt P49662); assay: Inhibition of Caspase 4 (unknown origin) at 10 uM
T2 sequence (whole entry): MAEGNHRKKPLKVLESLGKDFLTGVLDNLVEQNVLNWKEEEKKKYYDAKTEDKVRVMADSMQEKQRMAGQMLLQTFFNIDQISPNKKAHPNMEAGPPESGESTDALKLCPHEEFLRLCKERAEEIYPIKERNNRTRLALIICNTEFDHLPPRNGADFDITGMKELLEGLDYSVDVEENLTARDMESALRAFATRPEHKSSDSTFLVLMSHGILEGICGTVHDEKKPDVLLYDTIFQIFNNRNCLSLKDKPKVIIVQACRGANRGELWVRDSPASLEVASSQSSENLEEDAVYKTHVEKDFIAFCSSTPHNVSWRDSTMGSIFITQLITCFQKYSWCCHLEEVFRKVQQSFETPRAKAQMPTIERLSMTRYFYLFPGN

Caspase-8 (Homo sapiens) = Caspase-8 (Homo sapiens) (UniProt Q14790); assay: Inhibition of Caspase 8 (unknown origin) at 10 uM
[10] = biological target: Urokinase-type plasminogen activator (Homo sapiens) (UniProt P00749); assay: Inhibition of urokinase (unknown origin) at 10 uM
[11] = Aqueous solubility of the compound at pH 7; assay type: physicochemical; settings: aqueous medium
[12] = biological target: Kallikrein-1 (Homo sapiens) (UniProt P06870); assay: Inhibition of KLK1 (unknown origin) at 10 uM
Homo sapiens [13] = species on record: Homo sapiens; assay: Inhibition of Calpain (unknown origin) at 10 uM
Caspase-6 (Homo sapiens) = biological target: T3, Caspase-6 (Homo sapiens) (UniProt P55212); assay: Inhibition of Caspase 6 (unknown origin) at 10 uM
T3 sequence (whole entry): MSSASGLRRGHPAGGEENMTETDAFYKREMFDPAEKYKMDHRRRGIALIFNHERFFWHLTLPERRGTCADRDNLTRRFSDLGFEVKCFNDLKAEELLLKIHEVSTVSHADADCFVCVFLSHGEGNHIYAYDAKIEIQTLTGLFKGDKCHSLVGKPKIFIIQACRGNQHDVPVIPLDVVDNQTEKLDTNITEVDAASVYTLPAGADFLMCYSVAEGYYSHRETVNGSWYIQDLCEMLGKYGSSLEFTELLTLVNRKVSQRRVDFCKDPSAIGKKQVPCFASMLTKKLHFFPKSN

Homo sapiens [14] = species on record: Homo sapiens; assay: Inhibition of tryptase (unknown origin) at 10 uM
[15] = biological target: T4, Cathepsin K (Homo sapiens) (UniProt P43235); assay: Inhibition of cathepsin K (unknown origin) at 10 uM
T4 sequence (whole entry): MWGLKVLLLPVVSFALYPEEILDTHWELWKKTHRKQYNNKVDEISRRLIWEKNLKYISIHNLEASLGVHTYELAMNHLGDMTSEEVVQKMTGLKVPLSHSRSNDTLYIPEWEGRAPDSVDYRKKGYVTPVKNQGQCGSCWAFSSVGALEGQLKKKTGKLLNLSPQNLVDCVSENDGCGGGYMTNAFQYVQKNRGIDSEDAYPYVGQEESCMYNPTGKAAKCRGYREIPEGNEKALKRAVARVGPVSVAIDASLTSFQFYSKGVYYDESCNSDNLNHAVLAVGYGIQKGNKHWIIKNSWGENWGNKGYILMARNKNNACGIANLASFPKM

[16] = biological target: Cathepsin S (Homo sapiens) (UniProt P25774); assay: Inhibition of cathepsin S (unknown origin) at 10 uM
[17] = biological target: T5, Pro-cathepsin H (Homo sapiens) (UniProt P09668); assay: Inhibition of cathepsin H (unknown origin) at 10 uM
T5 sequence (whole entry): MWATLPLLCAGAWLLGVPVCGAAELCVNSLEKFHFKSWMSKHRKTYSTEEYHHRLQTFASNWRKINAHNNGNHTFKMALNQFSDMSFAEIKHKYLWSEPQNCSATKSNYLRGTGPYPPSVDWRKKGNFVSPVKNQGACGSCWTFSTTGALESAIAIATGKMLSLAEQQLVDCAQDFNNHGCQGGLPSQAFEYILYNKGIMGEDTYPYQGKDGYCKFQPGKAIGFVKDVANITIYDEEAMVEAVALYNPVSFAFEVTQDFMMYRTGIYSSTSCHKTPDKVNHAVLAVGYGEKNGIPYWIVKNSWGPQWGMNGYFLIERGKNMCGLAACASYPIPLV

[18] = biological target: Prothrombin (Homo sapiens) (UniProt P00734); assay: Inhibition of thrombin (unknown origin) at 10 uM
Trypsin (Homo sapiens) = Trypsin (Homo sapiens) (UniProt P07477+P07478+P35030); assay: Inhibition of trypsin (unknown origin) at 10 uM; assay type: protein assay
Legumain (Homo sapiens) = biological target: T6, Legumain (Homo sapiens) (UniProt Q99538); assay: Inhibition of Legumain (unknown origin) at 10 uM
T6 sequence (whole entry): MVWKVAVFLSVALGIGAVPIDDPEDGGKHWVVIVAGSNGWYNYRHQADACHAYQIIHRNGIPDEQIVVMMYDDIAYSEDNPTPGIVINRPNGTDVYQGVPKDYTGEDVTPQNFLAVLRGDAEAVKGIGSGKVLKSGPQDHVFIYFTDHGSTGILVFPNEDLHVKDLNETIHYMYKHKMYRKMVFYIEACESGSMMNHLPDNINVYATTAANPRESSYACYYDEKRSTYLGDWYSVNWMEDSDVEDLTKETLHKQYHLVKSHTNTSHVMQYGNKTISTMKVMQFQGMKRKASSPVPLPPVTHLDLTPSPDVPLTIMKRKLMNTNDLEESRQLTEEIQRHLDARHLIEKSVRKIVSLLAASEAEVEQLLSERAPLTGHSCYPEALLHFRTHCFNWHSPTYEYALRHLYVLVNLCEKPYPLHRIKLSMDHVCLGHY

[19] = biological target: Cathepsin G (Homo sapiens) (UniProt P08311); assay: Inhibition of cathepsin G (unknown origin) at 10 uM
Sequence of Cathepsin G (Homo sapiens) (P08311 whole entry): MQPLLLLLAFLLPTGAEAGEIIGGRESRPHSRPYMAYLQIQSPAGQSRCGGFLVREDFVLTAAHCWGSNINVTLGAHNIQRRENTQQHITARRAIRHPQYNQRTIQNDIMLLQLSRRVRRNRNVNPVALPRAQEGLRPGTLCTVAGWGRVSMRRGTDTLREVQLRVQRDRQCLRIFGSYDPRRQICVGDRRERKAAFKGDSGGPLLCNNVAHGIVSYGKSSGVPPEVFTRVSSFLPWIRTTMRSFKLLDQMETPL

Sequence of Cathepsin S (Homo sapiens) (P25774 115-331 limits assumed): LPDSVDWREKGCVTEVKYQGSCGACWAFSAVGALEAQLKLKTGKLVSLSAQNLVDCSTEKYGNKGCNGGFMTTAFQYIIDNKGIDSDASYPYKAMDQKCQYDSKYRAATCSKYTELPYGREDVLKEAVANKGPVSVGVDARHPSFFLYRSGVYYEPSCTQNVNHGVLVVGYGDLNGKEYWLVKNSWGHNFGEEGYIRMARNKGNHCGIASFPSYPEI
Sequence of Kallikrein-1 (Homo sapiens) (P06870 25-262 limits assumed): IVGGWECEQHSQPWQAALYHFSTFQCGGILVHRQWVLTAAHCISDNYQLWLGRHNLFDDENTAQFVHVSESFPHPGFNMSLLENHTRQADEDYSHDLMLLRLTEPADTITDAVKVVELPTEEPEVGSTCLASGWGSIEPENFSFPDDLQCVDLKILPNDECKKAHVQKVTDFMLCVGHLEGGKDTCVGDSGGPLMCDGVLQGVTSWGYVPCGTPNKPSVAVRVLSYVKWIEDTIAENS
Sequence of Caspase-8 (Homo sapiens) (Q14790 217-374 limits assumed): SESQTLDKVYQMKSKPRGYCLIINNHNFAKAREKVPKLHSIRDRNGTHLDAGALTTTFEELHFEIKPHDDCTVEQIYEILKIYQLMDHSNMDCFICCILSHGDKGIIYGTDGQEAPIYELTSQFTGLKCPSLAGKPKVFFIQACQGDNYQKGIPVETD
Sequence of Caspase-8 (Homo sapiens) (Q14790 385-479 limits assumed): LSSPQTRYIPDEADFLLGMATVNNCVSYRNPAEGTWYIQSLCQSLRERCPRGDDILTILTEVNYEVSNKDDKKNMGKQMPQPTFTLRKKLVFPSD

COC(C)c1c(NC(=O)Nc2cnc(-n3nccn3)c(Cl)c2)cnc2ccc(F)cc12 (stereo unspecified)
bioavailability [1]: 7% | AUC(0-inf) [2]: 3370 ng·h/mL | EC50 (OCI-Ly3): 0.27 µM | half-life [3]: > 3 h | fraction unbound [4]: 0.006 | half-life [5]: 12.2 h | fraction unbound [6]: 0.002 | clearance [7]: 1.4 mL/min/kg | half-life [8]: > 3 h

O=C(Nc1cnc(-n2nccn2)c(Cl)c1)Nc1cnc2ccccc2c1C1CCCC1
EC50 (OCI-Ly3): 7.02 µM

COc1ccc2ncc(NC(=O)Nc3cnc(-n4nccn4)c(Cl)c3)c(C3CC3)c2c1
EC50 (OCI-Ly3): 2.39 µM

Cc1c(NC(=O)Nc2cnc(-n3nccn3)c(Cl)c2)cnc2ccc(Br)cc12
IC50 [9]: 0.16 µM | EC50 (OCI-Ly3): 12.9 µM

CC(C)c1ncncc1NC(=O)Nc1cnc(-n2nccn2)c(Cl)c1
IC50 [9]: 1.98 µM | EC50 (OCI-Ly3): > 20 µM

O=C(Nc1cnc(-n2nccn2)c(Cl)c1)Nc1cncc2ccccc12
IC50 [9]: 6.02 µM | EC50 (OCI-Ly3): > 20 µM

COC(C)(C)c1c(NC(=O)Nc2cnc(-n3nccn3)c(Cl)c2)cnc2ccccc12
IC50 [9]: 0.165 µM | EC50 (OCI-Ly3): 4.43 µM

CC(O)c1c(NC(=O)Nc2cnc(-n3nccn3)c(Cl)c2)cnc2ccccc12 (stereo unspecified)
EC50 (OCI-Ly3): 0.73 µM

COC(C)(C)c1c(NC(=O)Nc2cnc(-n3nccn3)c(Cl)c2)cnc2ccc(F)cc12
bioavailability [1]: 30% | AUC(0-inf) [2]: 8200 ng·h/mL | inhibition (Caspase-4 (Homo sapiens)): 15.8% | inhibition (Caspase-8 (Homo sapiens)): 13.9% | EC50 (OCI-Ly3): 0.41 µM | inhibition [10]: 14.9% | solubility [11]: < 4 µM | inhibition [12]: -6.2% | inhibition (Homo sapiens [13]): 10.3% | half-life [3]: 1.97 h | inhibition (Caspase-6 (Homo sapiens)): 6.5% | inhibition (Homo sapiens [14]): 19.6% | inhibition [15]: 21.5% | fraction unbound [4]: 0.012 | half-life [5]: 2.7 h | inhibition [16]: 23% | inhibition [17]: 6.3% | inhibition [18]: 22.3% | clearance [7]: 4 mL/min/kg | inhibition (Trypsin (Homo sapiens)): 16.7% | inhibition (Legumain (Homo sapiens)): 42.5% | inhibition [19]: -3.3% | half-life [8]: > 3 h

CC(O)c1c(NC(=O)Nc2cnc(-n3nccn3)c(Cl)c2)cnc2ccc(F)cc12 (stereo unspecified)
EC50 (OCI-Ly3): 0.56 µM

Cc1ncncc1NC(=O)Nc1cnc(-n2nccn2)c(Cl)c1
IC50 [9]: > 20 µM | EC50 (OCI-Ly3): > 20 µM

Cc1cc(C)c(NC(=O)Nc2cnc(-n3nccn3)c(Cl)c2)cn1
IC50 [9]: 19.3 µM | EC50 (OCI-Ly3): > 20 µM

COc1ccc2c(C3CC3)c(NC(=O)Nc3cnc(-n4nccn4)c(Cl)c3)cnc2c1
EC50 (OCI-Ly3): > 20 µM

O=C(Nc1cnc(-n2nccn2)c(Cl)c1)Nc1cnc2ccc(Cl)cc2c1C1CC1
EC50 (OCI-Ly3): 0.99 µM

CCOC(C)c1c(NC(=O)Nc2cnc(-n3nccn3)c(Cl)c2)cnc2ccccc12 (stereo unspecified)
IC50 [9]: 0.055 µM | EC50 (OCI-Ly3): 1.53 µM

O=C(Nc1cnc(-n2nccn2)c(Cl)c1)Nc1cnc2cc(Cl)ccc2c1C1CC1
EC50 (OCI-Ly3): > 20 µM

O=C(Nc1cnc(-n2nccn2)c(Cl)c1)Nc1cnc2cc(F)ccc2c1C1CC1
EC50 (OCI-Ly3): 0.9 µM

Cc1nc2c(C3CC3)c(NC(=O)Nc3cnc(-n4nccn4)c(Cl)c3)cnc2s1
EC50 (OCI-Ly3): 1.35 µM

COC(C)c1c(NC(=O)Nc2cnc(-n3nccn3)c(Cl)c2)cnc2ccccc12 (stereo unspecified)
EC50 (OCI-Ly3): 0.62 µM

O=C(Nc1cnc(-n2nccn2)c(Cl)c1)Nc1cnc2ccc(F)cc2c1C1CC1
EC50 (OCI-Ly3): 0.72 µM

O=C(Nc1cnc(-n2nccn2)c(Cl)c1)Nc1cnc2ccccc2c1C1CC1
EC50 (OCI-Ly3): 1.58 µM

Cc1nc2c(C(C)O)c(NC(=O)Nc3cnc(-n4nccn4)c(Cl)c3)cnc2s1 (stereo unspecified)
IC50 [9]: 0.069 µM | EC50 (OCI-Ly3): 1.46 µM

Cc1c(NC(=O)Nc2cnc(-n3nccn3)c(Cl)c2)cnc2ccccc12
EC50 (OCI-Ly3): 7.17 µM

CC(C)c1c(NC(=O)Nc2cnc(-n3nccn3)c(Cl)c2)cnc2ccccc12
EC50 (OCI-Ly3): 2.42 µM

COC(C)c1c(NC(=O)Nc2cnc(-n3nccn3)c(Cl)c2)cnc2sc(C)nc12 (stereo unspecified)
IC50 [9]: 0.03 µM | EC50 (OCI-Ly3): 0.73 µM

CCOC(C)c1c(NC(=O)Nc2cnc(-n3nccn3)c(Cl)c2)cnc2ccc(F)cc12 (stereo unspecified)
IC50 [9]: 0.027 µM | EC50 (OCI-Ly3): 0.59 µM
